Compound in one experiment: CC[C@@H]1C(=O)N(C)c2cnc(Nc3ccc(C(=O)NC4CCN(C)CC4)cc3OC)nc2N1C1CCCC1 [BI-2536]
Put plainly: surviving fraction relative to DMSO-only wells; higher = less growth inhibition. The note with it: exposure time: 5 days. The method in brief: (§1)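 Viability values are CellTiter-Glo luminescence readings, given as surviving fraction against the median of DMSO-only wells. The readings were taken after 10 minutes at room temperature, following five days of continuous exposure to inhibitors at 0.5, 1, 5, 10, 50, 100, 500 and 1000 nM that began 24 hours after log-phase tumour cell lines were seeded at 250–500 cells per well in 384-well plates. Every line was screened three times and kept only if replicate Pearson r >0.7 and median Z' >0.3.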

Compound in the next experiment: CCCCCCCCCCCCCCCC(=O)Nc1ccn([C@@H]2O[C@H](CO)[C@@H](O)[C@@H]2C#N)c(=O)n1 [SAPACITABINE]
The description is as above. To be noted: exposure time: 5 days. The method in brief: as §1

± gives the standard deviation of the averaged measurements.

For SUM44 BREAST, the surviving fraction in the experiment with BI-2536 (0.5 nM) was 0.797 ± 0.039; in the experiment with BI-2536 (1 nM), 0.378 ± 0.025; with BI-2536 (5 nM), 0.163 ± 0.0069; with BI-2536 (10 nM), 0.166 ± 0.022; in the experiment with BI-2536 (50 nM) it was 0.158 ± 0.0027; with BI-2536 (100 nM), 0.154 ± 0.013. The surviving fraction with BI-2536 (500 nM) came out at 0.162 ± 0.013; with BI-2536 (1000 nM), 0.1503 ± 0.00058; in the experiment with SAPACITABINE (0.5 nM), 0.781 ± 0.19; in the experiment with SAPACITABINE (1 nM) it was 0.773 ± 0.18; in the experiment with SAPACITABINE (5 nM), 0.823 ± 0.14; in the experiment with SAPACITABINE (10 nM), 0.827 ± 0.1. Also, the surviving fraction in the experiment with SAPACITABINE (50 nM) was 0.902 ± 0.12; with SAPACITABINE (100 nM), 0.686 ± 0.13; in the experiment with SAPACITABINE (500 nM) it was 0.68 ± 0.093; with SAPACITABINE (1000 nM), 0.611 ± 0.07.
Take MFM223 BREAST: the surviving fraction stood at 0.818 ± 0.041 with BI-2536 (0.5 nM); 0.338 ± 0.017 in the experiment with BI-2536 (1 nM); 0.0768 ± 0.0068 in the experiment with BI-2536 (5 nM); 0.0932 ± 0.0063 in the experiment with BI-2536 (10 nM); 0.137 ± 0.012 in the experiment with BI-2536 (50 nM); 0.148 ± 0.012 with BI-2536 (100 nM). For the same test system, the surviving fraction with BI-2536 (500 nM) worked out at 0.141 ± 0.011; with BI-2536 (1000 nM) it was 0.106 ± 0.016; in the experiment with SAPACITABINE (0.5 nM) it was 0.839 ± 0.092; with SAPACITABINE (1 nM), 0.82 ± 0.11; in the experiment with SAPACITABINE (5 nM), 0.83 ± 0.089; with SAPACITABINE (10 nM), 0.8 ± 0.045. The surviving fraction turned out to be 0.933 ± 0.12 with SAPACITABINE (50 nM), 0.939 ± 0.026 in the experiment with SAPACITABINE (100 nM), 0.903 ± 0.074 with SAPACITABINE (500 nM) and 0.77 ± 0.1 in the experiment with SAPACITABINE (1000 nM).
As for MDAMB436 BREAST, the surviving fraction with BI-2536 (0.5 nM) was found to be 0.841 ± 0.027; with BI-2536 (1 nM), 0.649 ± 0.065; in the experiment with BI-2536 (5 nM), 0.4 ± 0.048; with BI-2536 (10 nM), 0.27 ± 0.0028; with BI-2536 (50 nM), 0.331 ± 0.017; with BI-2536 (100 nM), 0.379 ± 0.032. The surviving fraction with BI-2536 (500 nM) worked out at 0.394 ± 0.027; with BI-2536 (1000 nM) it was 0.38 ± 0.04; in the experiment with SAPACITABINE (0.5 nM) it was 0.861 ± 0.07; in the experiment with SAPACITABINE (1 nM) it was 0.795 ± 0.08; with SAPACITABINE (5 nM), 0.75 ± 0.074; with SAPACITABINE (10 nM) it was 0.719 ± 0.075. For the same test system, the surviving fraction came out at 0.561 ± 0.029 in the experiment with SAPACITABINE (50 nM), 0.497 ± 0.053 with SAPACITABINE (100 nM), 0.445 ± 0.049 with SAPACITABINE (500 nM) and 0.352 ± 0.013 with SAPACITABINE (1000 nM).
With SJSA1 BONE, the surviving fraction in the experiment with BI-2536 (0.5 nM) was determined as 1.01 ± 0.067; with BI-2536 (1 nM) it was 1.02 ± 0.068; with BI-2536 (5 nM), 0.882 ± 0.011; with BI-2536 (10 nM), 0.252 ± 0.033; with BI-2536 (50 nM), 0.174 ± 0.01; with BI-2536 (100 nM), 0.191 ± 0.0061. Further, the surviving fraction with BI-2536 (500 nM) is 0.267 ± 0.02; with BI-2536 (1000 nM) it was 0.236 ± 0.015; in the experiment with SAPACITABINE (0.5 nM) it was 1.24 ± 0.072; in the experiment with SAPACITABINE (1 nM) it was 1.18 ± 0.095; in the experiment with SAPACITABINE (5 nM), 1.19 ± 0.25; in the experiment with SAPACITABINE (10 nM), 1.21 ± 0.066. Further, the surviving fraction is 1.65 ± 0.058 in the experiment with SAPACITABINE (50 nM), 1.74 ± 0.087 with SAPACITABINE (100 nM), 1.65 ± 0.1 in the experiment with SAPACITABINE (500 nM) and 1.75 ± 0.11 with SAPACITABINE (1000 nM).
As for MG63 BONE, the surviving fraction with BI-2536 (0.5 nM) came to 1.057 ± 0.0095; with BI-2536 (1 nM) it was 1.02 ± 0.053; in the experiment with BI-2536 (5 nM) it was 0.884 ± 0.049; in the experiment with BI-2536 (10 nM), 0.0403 ± 0.0059; in the experiment with BI-2536 (50 nM), 0.033 ± 0.0017; with BI-2536 (100 nM), 0.023 ± 0.0017. Moreover, the surviving fraction in the experiment with BI-2536 (500 nM) stood at 0.029 ± 0.001; in the experiment with BI-2536 (1000 nM), 0.03 ± 0.001; with SAPACITABINE (0.5 nM), 0.903 ± 0.027; with SAPACITABINE (1 nM), 0.898 ± 0.027; with SAPACITABINE (5 nM) it was 0.943 ± 0.021; in the experiment with SAPACITABINE (10 nM), 0.9 ± 0.031. For the same test system, the surviving fraction with SAPACITABINE (50 nM) worked out at 0.601 ± 0.014; in the experiment with SAPACITABINE (100 nM) it was 0.357 ± 0.013; with SAPACITABINE (500 nM) it was 0.123 ± 0.019; with SAPACITABINE (1000 nM), 0.217 ± 0.013.
Take HCC70 BREAST: the surviving fraction in the experiment with BI-2536 (0.5 nM) turned out to be 1.08 ± 0.026; with BI-2536 (1 nM), 0.933 ± 0.12; in the experiment with BI-2536 (5 nM) it was 0.57 ± 0.047; with BI-2536 (10 nM) it was 0.35 ± 0.053; with BI-2536 (50 nM) it was 0.623 ± 0.041; with BI-2536 (100 nM) it was 0.795 ± 0.043. Further, the surviving fraction was 0.593 ± 0.042 with BI-2536 (500 nM); 0.391 ± 0.045 with BI-2536 (1000 nM); 0.968 ± 0.09 with SAPACITABINE (0.5 nM); 0.935 ± 0.058 with SAPACITABINE (1 nM); 1.03 ± 0.036 with SAPACITABINE (5 nM); 0.97 ± 0.023 with SAPACITABINE (10 nM). The surviving fraction with SAPACITABINE (50 nM) was found to be 0.746 ± 0.065; with SAPACITABINE (100 nM), 0.635 ± 0.0092; with SAPACITABINE (500 nM) it was 0.4057 ± 0.0035; with SAPACITABINE (1000 nM), 0.332 ± 0.028.

For the origin of these results see the supplement of paper PMC6045584.
